Read-outs that look alike come from different tables or passages of the source.
How the values were obtained:
cancer stem cells = assay: Survival rate of cancer stem cells after test compound is added (flow cytometry, Annexin V-FITC/PI, clinical specimen); type: cell-based, patient; settings: Homo sapiens, 18 h
How it was run: (§1)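 Steps: density-gradient isolation of mononuclear cells from fresh or cryopreserved clinical samples; 18-hour compound exposure at 1×10^6 cells/mL; staining for stem-cell surface markers, then Annexin V-FITC and PI; flow cytometric apoptosis analysis.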

[1] = tested on: PGE2 secreted by synoviocyte; assay: Content of PGE2 in culture supernatant of synoviocyte of RA model rats given test compound; type: in vivo; settings: rat RA model, dose 30 mg/kg.2d; normal control 8.34 ± 1.29, NaCl 32.44 ± 10.32
How it was run: (§2)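 Test article is given to RA rats at 30 mg/kg.2d, and synoviocytes are isolated and cultured. Secreted TNF-α and PGE2 in the culture medium are measured by a shared protocol, while IL-1β release is measured by a different protocol. Comparison groups are saline (NaCl) and normal control rats.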

normal cells = assay: Survival rate of normal cells after test compound is added (flow cytometry, Annexin V-FITC/PI); type: cell-based; settings: 18 h
How it was run: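 Patient specimens (e.g. AML, CD34+/CD38+ stem-cell marker) separated on Ficoll; mononuclear cells at 1×10^6/mL in serum-free IMDM treated 18 h with compound. Cells stained for stem-cell markers, then Annexin V-FITC/PI, and apoptosis measured by flow cytometry within one hour.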

[2] = tested on: IL-1β secreted by synoviocyte; assay: Content of IL-1β in culture supernatant of synoviocyte of RA model rats given test compound; type: in vivo; settings: rat RA model, dose 30 mg/kg.2d; normal control 0.16 ± 0.034, NaCl 0.49 ± 0.136
How it was run: as §2

cancer cells = assay: Survival rate of cancer cells after test compound is added (flow cytometry, Annexin V-FITC/PI, clinical specimen); type: cell-based, patient; settings: Homo sapiens, 18 h, read-out: Survival rate (%) All cells (Stem cells and ordinary cells)
How it was run: as §1

[3] = Head and neck squamous cell carcinomas
[4] = read-out: Survival rate (%) All cells (Stem cells and ordinary cells)
[5] = read-out: Survival rate (%) Stem cells

C=C1CC[C@H]2C(=C)CC[C@H]3C(=C)C(=O)O[C@@H]3[C@@H]12 [Compound 25]
viability at 10 µM (cancer stem cells; AML): 35%
viability at 20 µM (cancer stem cells; AML): 26%
viability at 10 µM (cancer stem cells; Brain glioma): 62%
viability at 20 µM (cancer stem cells; Brain glioma): 47%
viability at 10 µM (cancer stem cells; Brain tumor): 72%
viability at 20 µM (cancer stem cells; Brain tumor): 66%
viability at 10 µM (cancer stem cells; Breast cancer): 66%
viability at 20 µM (cancer stem cells; Breast cancer): 52%
viability at 10 µM (cancer stem cells; CLL): 46%
viability at 20 µM (cancer stem cells; CLL): 34%
viability at 10 µM (cancer stem cells; CML): 57%
viability at 20 µM (cancer stem cells; CML): 36%
viability at 10 µM (cancer stem cells; Children hepatoblastoma): 44%
viability at 20 µM (cancer stem cells; Children hepatoblastoma): 39%
viability at 10 µM (cancer stem cells; Colon adenocarcinoma): 42%
viability at 20 µM (cancer stem cells; Colon adenocarcinoma): 35%
viability at 10 µM (cancer stem cells; Colorectal cancer): 62%
viability at 20 µM (cancer stem cells; Colorectal cancer): 55%
viability at 10 µM (cancer stem cells; Gastric cancer): 43%
viability at 20 µM (cancer stem cells; Gastric cancer): 37%
viability at 10 µM (cancer stem cells; Gastrointestinal tumor): 54%
viability at 20 µM (cancer stem cells; Gastrointestinal tumor): 44%
viability at 10 µM (cancer stem cells; Glioma): 71%
viability at 20 µM (cancer stem cells; Glioma): 65%
viability at 10 µM (cancer stem cells; [3]): 56%
viability at 20 µM (cancer stem cells; [3]): 47%
viability at 10 µM (cancer stem cells; Laryngeal cancer): 64%
viability at 20 µM (cancer stem cells; Laryngeal cancer): 53%
viability at 10 µM (cancer stem cells; Liver cancer): 52%
viability at 20 µM (cancer stem cells; Liver cancer): 46%
viability at 10 µM (cancer stem cells; Lung adenocarcinoma): 46%
viability at 20 µM (cancer stem cells; Lung adenocarcinoma): 34%
viability at 10 µM (cancer stem cells; Lung cancer): 42%
viability at 20 µM (cancer stem cells; Lung cancer): 29%
viability at 10 µM (cancer stem cells; Malignant melanoma): 62%
viability at 20 µM (cancer stem cells; Malignant melanoma): 54%
viability at 10 µM (cancer stem cells; Nasopharynx cancer): 45%
viability at 20 µM (cancer stem cells; Nasopharynx cancer): 37%
viability at 10 µM (cancer stem cells; Ovarian cancer): 64%
viability at 20 µM (cancer stem cells; Ovarian cancer): 55%
viability at 10 µM (cancer stem cells; Pancreatic cancer): 54%
viability at 20 µM (cancer stem cells; Pancreatic cancer): 36%
viability at 10 µM (cancer stem cells; Prostate cancer): 44%
viability at 20 µM (cancer stem cells; Prostate cancer): 31%
viability at 10 µM (cancer stem cells; Retinoblastoma): 55%
viability at 20 µM (cancer stem cells; Retinoblastoma): 34%
viability at 10 µM (cancer stem cells; Skin cancer): 55%
viability at 20 µM (cancer stem cells; Skin cancer): 43%
Content of PGE2 in culture supernatant of synoviocyte (x ± s) [1]: 26.48 ± 2.57 ng/mL
viability at 10 µM (normal cells; [4]): 93%
viability at 10 µM (normal cells; [5]): 89%
viability at 20 µM (normal cells; [4]): 91%
viability at 20 µM (normal cells; [5]): 88%
Content of IL-1β in culture supernatant of synoviocyte (x ± s) [2]: 0.39 ± 0.067 ng/mL
viability at 10 µM (cancer cells; AML): 47%
viability at 20 µM (cancer cells; AML): 44%
viability at 10 µM (cancer cells; Brain glioma): 74%
viability at 20 µM (cancer cells; Brain glioma): 58%
viability at 10 µM (cancer cells; Brain tumor): 83%
viability at 20 µM (cancer cells; Brain tumor): 73%
viability at 10 µM (cancer cells; Breast cancer): 74%
viability at 20 µM (cancer cells; Breast cancer): 65%
viability at 10 µM (cancer cells; CLL): 57%
viability at 20 µM (cancer cells; CLL): 45%
viability at 10 µM (cancer cells; CML): 64%
viability at 20 µM (cancer cells; CML): 49%
viability at 10 µM (cancer cells; Children hepatoblastoma): 53%
viability at 20 µM (cancer cells; Children hepatoblastoma): 47%
viability at 10 µM (cancer cells; Colon adenocarcinoma): 55%
viability at 20 µM (cancer cells; Colon adenocarcinoma): 49%
viability at 10 µM (cancer cells; Colorectal cancer): 76%
viability at 20 µM (cancer cells; Colorectal cancer): 66%
viability at 10 µM (cancer cells; Gastric cancer): 54%
viability at 20 µM (cancer cells; Gastric cancer): 47%
viability at 10 µM (cancer cells; Gastrointestinal tumor): 63%
viability at 20 µM (cancer cells; Gastrointestinal tumor): 52%
viability at 10 µM (cancer cells; Glioma): 83%
viability at 20 µM (cancer cells; Glioma): 74%
viability at 10 µM (cancer cells; [3]): 67%
viability at 20 µM (cancer cells; [3]): 58%
viability at 10 µM (cancer cells; Laryngeal cancer): 74%
viability at 20 µM (cancer cells; Laryngeal cancer): 64%
viability at 10 µM (cancer cells; Liver cancer): 65%
viability at 20 µM (cancer cells; Liver cancer): 54%
viability at 10 µM (cancer cells; Lung adenocarcinoma): 57%
viability at 20 µM (cancer cells; Lung adenocarcinoma): 46%
viability at 10 µM (cancer cells; Lung cancer): 54%
viability at 20 µM (cancer cells; Lung cancer): 37%
viability at 10 µM (cancer cells; Malignant melanoma): 81%
viability at 20 µM (cancer cells; Malignant melanoma): 66%
viability at 10 µM (cancer cells; Nasopharynx cancer): 54%
viability at 20 µM (cancer cells; Nasopharynx cancer): 48%
viability at 10 µM (cancer cells; Ovarian cancer): 76%
viability at 20 µM (cancer cells; Ovarian cancer): 67%
viability at 10 µM (cancer cells; Pancreatic cancer): 64%
viability at 20 µM (cancer cells; Pancreatic cancer): 48%
viability at 10 µM (cancer cells; Prostate cancer): 56%
viability at 20 µM (cancer cells; Prostate cancer): 44%
viability at 10 µM (cancer cells; Retinoblastoma): 64%
viability at 20 µM (cancer cells; Retinoblastoma): 54%
viability at 10 µM (cancer cells; Skin cancer): 66%
viability at 20 µM (cancer cells; Skin cancer): 58%

Source: US10463644B2, “Uses of sesquiterpene lactone compounds and their derivatives in drugs preparation” (ACCENDATECH, priority 2013, dated 2019)
